Experimental data published in PMC12196251, “Synthesis of New DltA Inhibitors and Their Application as Adjuvant Antibiotics to Re-Sensitize Methicillin-Resistant Staphylococcus aureus” (Molecules, 2025).
Values joined by “and” are separate entries in the source; they are usually repeats but may differ in a detail not shown here. Identical values can stand only once. Counter-ions that a name gives are not always drawn. Like-named read-outs stand apart in the source and are kept apart here.

Key:
[1] = system: D-alanyl ester of the MRSA cell wall; assay: Quantification of D-alanyl ester in the bacterial cell wall; format: cell-based, S. aureus; conditions: inhibitor at 1 mM, value (spread)
Protocol: (§1) All these compounds were also tested […] against MRSA clinical isolates. […] The minimum inhibitory concentrations (MICs) of imipenem (IPM) were next determined in the absence or presence of 1 mM of the different DltA inhibitors to evaluate their potential to re-sensitize MRSA to this β-lactam (Table 2). […] To clarify this hypothesis, quantification of D-alanyl ester of the MRSA cell wall was performed as previously described in the presence of inhibitors (Table 2). […] These new series represent a promising structure entry not reported yet for the inhibition of DltA and the re-sensitization of bacteria toward known antibiotics.
Ester-linked D-alanines were quantified as described previously, with the following modifications. Cultures were grown in 5 mL of BHI supplemented with DltA inhibitor to a final concentration of 0.05, 0.1, 0.25, 0.5, 0.75, or 1 mM for 16 h at 37 °C under shaking (120 rpm). Briefly, the quantification is based on the oxidation of a chromogen by H2O2 generated when free D-alanines are oxidized by a D-amino acid oxidase. Three independent experiments with duplicate samples were performed.

MRSA clinical isolates = assay: MIC of imipenem against MRSA in absence or presence of DltA inhibitor; format: cell-based, S. aureus; conditions: for MIC: Staphylococcus aureus, MRSA
Protocol: as §1
Colonies from BHI agar plates were suspended in saline solution (0.9% NaCl) and adjusted to an OD600 of 0.5. For growth kinetics determination, 96-well microplates (Starlab, Orsay, France) containing 200 μL of fresh BHI medium were inoculated with bacterial suspensions to an OD600 of 0.02 with a wide range of DltA inhibitors (from 0 to 2 mM). Plates were incubated at 37 °C with shaking (orbital amplitude of 3 mm) in a microplate reader (InfiniteM Nano, Tecan, Seoul, Republic of Korean). OD600nm was measured every 10 min for 24 h. Determination of MIC/MBC of antibiotics and bacterial survival assays were performed as previously described using BHI medium. The DltA inhibitor was diluted in pure water and added to the growth medium to a final concentration of 0, 0.1, 0.25, 0.5, 0.75, or 1 mM.

[2] = biological target: T1, recombinant DltA from S. epidermidis (Staphylococcus epidermidis, UniProt Q5HQN0); assay: DltA enzyme inhibition, PPi release coupled-enzyme assay; format: biochemical
T1 construct: made in house; host or cells: E. coli
T1 sequence (Q5HQN0 1-485): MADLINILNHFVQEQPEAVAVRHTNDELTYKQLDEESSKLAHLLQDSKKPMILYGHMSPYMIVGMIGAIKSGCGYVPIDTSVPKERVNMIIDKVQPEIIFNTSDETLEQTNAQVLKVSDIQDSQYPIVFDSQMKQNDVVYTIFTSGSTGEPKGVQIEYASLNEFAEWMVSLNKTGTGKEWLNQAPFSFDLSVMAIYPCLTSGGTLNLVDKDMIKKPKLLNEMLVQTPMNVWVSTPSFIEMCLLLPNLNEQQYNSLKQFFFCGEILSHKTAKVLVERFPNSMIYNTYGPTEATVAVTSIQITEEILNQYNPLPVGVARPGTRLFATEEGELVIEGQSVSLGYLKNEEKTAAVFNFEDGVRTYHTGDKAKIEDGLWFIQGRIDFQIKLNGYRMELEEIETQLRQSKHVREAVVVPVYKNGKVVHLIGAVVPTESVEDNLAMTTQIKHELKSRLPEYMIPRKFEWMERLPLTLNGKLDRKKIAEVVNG
Protocol: (§2) All new compounds were then evaluated in vitro for enzyme inhibition against recombinant DltA from E. faecalis or S. epidermis. Half-maximal inhibitory concentrations (IC50) were then determined by measuring the amount of PPi released at different inhibitor concentrations (Table 2). […] We noticed the DltA enzyme tolerated the presence of various modifications on the 2′-position, but the activity was inversely related to the size of the introduced group. […] Despite a good predicted binding affinity (−8.7 Kcal/mol), we hypothesize that the lower activity could be explained by the fact that the squaramide nitrogen atom might not be under its anionic form, as is the case with sulfamate 1.
(§3) The DltA-catalyzed ATP-hydrolysis reaction was monitored in vitro via PPi release (DltA +D-alanine +ATP → DltA-DAla-AMP +PPi) using a coupled-enzyme assay. The purified DltA was pretreated with DltC purified from E. coli to clear D-Ala-AMP already present in the enzyme preparation after expression in E. coli. Holo-DltC is the natural protein partner of DltA, and DltC purified from E. coli BL21 (DE3) contained 51% of this active form of DltC as determined by HPLC analysis. DltA was pretreated with DltC (ratio 1:1.2), incubated for 30 min at 37 °C and 30 min at 4 °C. Three successive washes were realized on Amicon Ultra-2 Centrifugal Filter Unit—Ultracel 30 membrane 30 kDa MWCO (Merck, Darmstadt, Germany) with elution buffer EB at 4 °C. The components of the coupled enzyme assay included 1.5 μM pre-treated DltA, 20 μM of ATP, and 14 μM of D-alanine. The half-maximal inhibitory concentration (IC50) of potential DltA inhibitors was determined by the addition of different concentrations of the synthesized molecules. PPi release was determined using the PiPer—Pyrophosphate assay kit (Invitrogen, Waltham, MA, USA) according to the recommendation of the supplier. Reactions were carried out in 96-well Chimney Style, non-binding Microplates with μClear Film Bottom (Greiner Bio-one, Frickenhausen, Germany). Plates were incubated at 37 °C for 5 h and read in a FlexStation 3 Multi-Mode plate reader (Molecular Devices, Silicon Valley, CA, USA), with λ excitation of 530 nm and λ emission of 590 nm. Experiments were conducted in sextuplicate, and the IC50 was determined by linear regression of the curve.

[3] = biological target: T2, recombinant DltA from E. faecalis (Enterococcus faecalis, UniProt Q830N0); assay: as above; format: biochemical
T2 construct: made in house; host or cells: E. coli
T2 sequence (Q830N0 1-506): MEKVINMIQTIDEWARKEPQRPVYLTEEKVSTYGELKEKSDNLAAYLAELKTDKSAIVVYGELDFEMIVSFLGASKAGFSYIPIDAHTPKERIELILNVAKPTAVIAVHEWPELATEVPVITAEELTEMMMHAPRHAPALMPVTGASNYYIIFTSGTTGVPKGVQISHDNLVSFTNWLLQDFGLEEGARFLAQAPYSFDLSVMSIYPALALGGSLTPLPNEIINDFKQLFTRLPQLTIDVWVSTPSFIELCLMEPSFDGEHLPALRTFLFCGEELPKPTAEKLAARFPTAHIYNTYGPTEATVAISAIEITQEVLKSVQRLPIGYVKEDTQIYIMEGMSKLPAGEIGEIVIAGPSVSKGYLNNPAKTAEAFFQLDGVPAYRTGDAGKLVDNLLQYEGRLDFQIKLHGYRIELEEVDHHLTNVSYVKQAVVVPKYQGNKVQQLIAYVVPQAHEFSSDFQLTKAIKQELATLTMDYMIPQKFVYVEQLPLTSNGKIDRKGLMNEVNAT
Protocol: as §2, §3

[4] = S. aureus (MRSA), in presence of 1 mM of the DltA inhibitor
[5] = S. aureus (MRSA), in presence of 1 mM of the DltA inhibitor, read-out: MIC of IPM

CC(C)OP(=O)(OC(C)C)C(F)(F)/C=C/CO[C@@H]1[C@H](O)[C@@H](COS(=O)(=O)NC(=O)[C@@H](C)N)O[C@H]1n1cnc2c(N)ncnc21 [Compound 18, ((2R,3R,4R,5R)-5-(6-amino-9H-purin-9-yl)-4-(((E)-4-(diisopropoxyphosphoryl)-4,4-difluorobut-2-en-1-yl)oxy)-3-hydroxytetrahydrofuran-2-yl)methyl (D-alanyl)sulfamate salt]
Reduction in D-Ala Ester Residues [1]: 51.5% and 51.5 (14.2) %
MIC (MRSA clinical isolates; read-out: MIC of IPM, S. aureus (MRSA), in presence of 1 mM of the DltA inhibitor): 0.25 µg/mL
IC50 [2]: 7.6 µM

C[C@@H](O)[C@H]1C(=O)N2C(C(=O)O)=C(SCCN=CN)C[C@H]12 [IPM, imipenem, reference compound]
MIC (MRSA clinical isolates; tested MRSA strain, no inhibitor, read-out: MIC of IPM in the absence of an inhibitor): 32 µg/mL

CCCCCCC(=O)N[C@H](C)C(=O)c1cn(C[C@H]2O[C@@H](n3cnc4c(N)ncnc43)[C@H](O)[C@@H]2O)nn1 [Compound 51, N-((R)-1-(1-(((2R,3S,4R,5R)-5-(6-amino-9H-purin-9-yl)-3,4-dihydroxytetrahydrofuran-2-yl)methyl)-1H-1,2,3-triazol-4-yl)-1-oxopropan-2-yl)heptanamide salt]
Reduction in D-Ala Ester Residues [1]: 22.2 (5.0) %
MIC of IPM (MRSA clinical isolates; [4]): 16 µg/mL
MIC (MRSA clinical isolates; [5]): 16 to 64 µg/mL
IC50 [2]: 22.2 µM

C[C@@H](NC(=O)c1ccc(-c2ccccc2)cc1)C(=O)c1cn(C[C@H]2O[C@@H](n3cnc4c(N)ncnc43)[C@H](O)[C@@H]2O)nn1 [Compound 52, N-((R)-1-(1-(((2R,3S,4R,5R)-5-(6-amino-9H-purin-9-yl)-3,4-dihydroxytetrahydrofuran-2-yl)methyl)-1H-1,2,3-triazol-4-yl)-1-oxopropan-2-yl)-[1,1′-biphenyl]-4-carboxamide salt]
Reduction in D-Ala Ester Residues [1]: 16% and 16.0 (4.2) %
MIC (MRSA clinical isolates; [5]): 8 µg/mL
IC50 [2]: 12.4 µM

C[C@@H](N)C(=O)NS(=O)(=O)OC[C@H]1O[C@@H](n2cnc3c(N)ncnc32)[C@H](n2cc(CO[C@@H]3O[C@H](CO)[C@@H](O)[C@H](O)[C@H]3O)nn2)[C@@H]1O [Compound 11, ((2R,3S,4R,5R)-5-(6-amino-9H-purin-9-yl)-3-hydroxy-4-(4-((((2R,3R,4S,5S,6R)-3,4,5-trihydroxy-6-(hydroxymethyl)tetrahydro-2H-pyran-2-yl)oxy)methyl)-1H-1,2,3-triazol-1-yl)tetrahydrofuran-2-yl)methyl (D-alanyl)sulfamate salt]
Reduction in D-Ala Ester Residues [1]: 0%
MIC of IPM (MRSA clinical isolates; [4]): 32 µg/mL
MIC (MRSA clinical isolates; [5]): 16 to 64 µg/mL
IC50 [2]: 39.5 µM

CC(N)C(=O)NS(=O)(=O)NCC1OC(n2cnc3c(N)ncnc32)C(F)C1O [Compound 31, (R)-2-amino-N-(N-(((2R,3R,4R,5R)-5-(6-amino-9H-purin-9-yl)-4-fluoro-3-hydroxytetrahydrofuran-2-yl)methyl)sulfamoyl)propenamide salt]
Reduction in D-Ala Ester Residues [1]: 0%
MIC (MRSA clinical isolates; [5]): 32 µg/mL
IC50 [3]: 3.2 µM

C[C@@H](NC(=O)OCc1ccc([N+](=O)[O-])cc1)C(=O)c1cn(C[C@H]2O[C@@H](n3cnc4c(N)ncnc43)[C@H](O)[C@@H]2O)nn1 [Compound 54, 4-nitrobenzyl ((R)-1-(1-(((2R,3S,4R,5R)-5-(6-amino-9H-purin-9-yl)-3,4-dihydroxytetrahydrofuran-2-yl)methyl)-1H-1,2,3-triazol-4-yl)-1-oxopropan-2-yl)carbamate salt]
Reduction in D-Ala Ester Residues [1]: 0%
MIC of IPM (MRSA clinical isolates; [4]): 16 µg/mL
MIC (MRSA clinical isolates; [5]): 16 to 64 µg/mL
IC50 [2]: 21.9 µM

C[C@@H](N)C(=O)Nc1c(NC[C@H]2O[C@@H](n3cnc4c(N)ncnc43)[C@H](O)[C@@H]2O)c(=O)c1=O [Compound 23, 5′-N-(N-D-alanyl]-(3-amino-cyclobut-3-ene-1,2-dione))aminodeoxy adenosine salt]
Reduction in D-Ala Ester Residues [1]: 11.5 (1.3) %
IC50 [3]: 28.4 µM

C[C@@H](N)C(=O)NS(=O)(=O)OC[C@H]1O[C@@H](n2cnc3c(N)ncnc32)[C@H](F)[C@@H]1O [Compound 8, ((2R,3R,4R,5R)-5-(6-amino-9H-purin-9-yl)-4-fluoro-3-hydroxytetrahydrofuran-2-yl)methyl (D-alanyl)sulfamate salt]
Reduction in D-Ala Ester Residues [1]: 0%
MIC (MRSA clinical isolates; [5]): 16 µg/mL
IC50 [3]: 2.6 µM

CCCCCCOc1ccc(C(=O)N[C@H](C)C(=O)c2cn(C[C@H]3O[C@@H](n4cnc5c(N)ncnc54)[C@H](O)[C@@H]3O)nn2)cc1 [Compound 53, N-((R)-1-(1-(((2R,3S,4R,5R)-5-(6-amino-9H-purin-9-yl)-3,4-dihydroxytetrahydrofuran-2-yl)methyl)-1H-1,2,3-triazol-4-yl)-1-oxopropan-2-yl)-4-(hexyloxy)benzamide salt]
Reduction in D-Ala Ester Residues [1]: 12.5 (14.0) %
MIC of IPM (MRSA clinical isolates; [4]): 16 µg/mL
MIC (MRSA clinical isolates; [5]): 16 to 64 µg/mL
IC50 [2]: 16 µM

C[C@@H](N)C(=O)NS(=O)(=O)NC/C(CF)=C(\F)Cn1cnc2c(N)ncnc21 [Compound 38, (R,E)-2-amino-N-(N-(4-(6-amino-9H-purin-9-yl)-3-fluoro-2-(fluoromethyl)but-2-en-1-yl)sulfamoyl)propenamide salt]
Reduction in D-Ala Ester Residues [1]: 2%
MIC of IPM (MRSA clinical isolates; [4]): 32 µg/mL
MIC (MRSA clinical isolates; [5]): 16 to 64 µg/mL
IC50 [2]: > 100 µM
IC50 ([2]; Dlt from S. epidermidis, PPi release, value (spread)): complete loss of the activity
